Literature values in patent US9156879B1, “Chromatography media” (Merck Sharp & Dohme Corp., priority 2010, dated 2015).

Details: critical micelle concentration of detergent

Row | Compound | CMC % (w/v)
1 | Deoxycholate | 0.21 % (w/v)
2 | C[C@H](CCC(=O)O)[C@H]1CC[C@H]2[C@@H]3[C@H](O)C[C@@H]4C[C@H](O)CC[C@]4(C)[C@H]3C[C@H](O)[C@]12C [Cholate] | 0.60 % (w/v)
3 | LysoPC | 0.0004 % (w/v)
4 | CCCCCCCCCCCCCCCC[N+](C)(C)C.[Br-] [C16TAB] | 0.04 % (w/v)
5 | CCCCCCCCCCCCOCCOCCOCCOCCOCCOCCOCCOCCO [C12E8] | 0.005 % (w/v)
6 | C[C@H](CCC(=O)NCCC[N+](C)(C)CCCS(=O)(=O)[O-])[C@H]1CC[C@H]2[C@@H]3[C@H](O)C[C@@H]4C[C@H](O)CC[C@]4(C)[C@H]3C[C@H](O)[C@]12C [CHAPS, 3[(3-cholamidopropyl)dimethylammonio]-1-propanesulfonate] | 0.49 % (w/v)

Results, then the compound that gave them:

Row | CMC % (w/v) | Compound
7 | 0.021 % (w/v) | Triton X-100
8 | 0.002 % (w/v) | CCCCCCCC/C=C\CCCCCCCC(=O)OCCOCC(OCCO)C1OCC(OCCO)C1OCCO (stereo not drawn) [Tween 80]
9 | 0.73 % (w/v) | CCCCCCCCO[C@@H]1O[C@H](CO)[C@@H](O)[C@H](O)[C@H]1O [Octylglucoside]
10 | 0.011 % (w/v) | CCCCCCCCCCCCCC[N+](C)(C)CCCS(=O)(=O)[O-] [Zwittergent 3-14]
11 | 0.23 % (w/v) | CCCCCCCCCCCCOS(=O)(=O)[O-].[Na+] [SDS, sodium dodecyl sulfate]
12 | 0.017 % (w/v) | Nonidet P-40
